Source: patent publication US8114892B2, “Methods and compositions for the treatment of Parkinson's Disease” (The McLean Hospital Corporation, priority 2006, dated 2012)
Entries after “also recorded” stand apart in the source; their conditions may differ.

Columns and labels:
Format in all cases: cell-based
Nurr1 = target: T1, Nurr1 (Homo sapiens, UniProt P43354); assay: Primary screening: Nurr1 effector with 2.6-TH promoter firefly luciferase reporter, transient transfection in SK-N-BE(2)C cells; settings: incubation for eighteen hours; for Hit identification in repeated primary screening (luciferase activity): pcDNA-Nurr1 construct
T1 construct: effector plasmid containing the Nurr1 gene; expressed in transfected cells; host or cells: SK-N-BE(2)C human neuroblastoma cells, transient transfection
T1 sequence (P43354 whole entry): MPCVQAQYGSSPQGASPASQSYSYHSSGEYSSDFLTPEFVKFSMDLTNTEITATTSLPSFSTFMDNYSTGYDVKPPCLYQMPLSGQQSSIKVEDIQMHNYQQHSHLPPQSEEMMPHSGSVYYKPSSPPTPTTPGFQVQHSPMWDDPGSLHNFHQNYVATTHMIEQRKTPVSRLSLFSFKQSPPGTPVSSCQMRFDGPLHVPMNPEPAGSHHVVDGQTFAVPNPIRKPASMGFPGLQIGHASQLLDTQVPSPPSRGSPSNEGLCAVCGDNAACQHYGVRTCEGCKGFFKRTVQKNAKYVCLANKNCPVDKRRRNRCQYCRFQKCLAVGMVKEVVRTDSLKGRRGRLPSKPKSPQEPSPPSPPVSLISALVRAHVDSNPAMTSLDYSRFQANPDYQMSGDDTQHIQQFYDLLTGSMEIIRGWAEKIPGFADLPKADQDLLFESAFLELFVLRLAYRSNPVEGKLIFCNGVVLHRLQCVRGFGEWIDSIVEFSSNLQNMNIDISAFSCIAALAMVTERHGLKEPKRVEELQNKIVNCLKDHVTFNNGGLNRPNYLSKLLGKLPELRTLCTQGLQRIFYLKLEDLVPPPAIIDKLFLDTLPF
Protocol: FIG. 5A is a chart showing preliminary screening data with a small chemical library. Transiently expressed Nurr1 activity in SK-N-BE(2)C cells was measured by luciferase activity with 2.6-TH promoter after incubation with each compound for eighteen hours. […] Each column has eight different chemical compounds. FIG. 5B is a chart showing further preliminary screening data with a small chemical library. Transiently expressed Nurr1 activity in SK-N-BE(2)C cells was measured by luciferase activity with 2.6-TH promoter after incubation with each compound for eighteen hours. […] Each column has eight different chemical compounds.
Transiently expressed Nurr1 activity in SK-N-BE(2)C cells was measured by luciferase activity after incubation of each compound with the pcDNA-Nurr1 construct for eighteen hours.
A cell-based system exploiting Nurr1's activation of TH was created in order to develop an assay for identification of Nurr1-activating compounds. […] In addition, a transient transfection was selected, rather than using stable cell-line transfection, to favor the maximum responsiveness of compounds to the reporter gene in order to detect low-affinity hit chemicals in the first screening. Another parameter considered was the selection of short-sized natural TH promoters with all essential NBRE (Nurr1-binding)-like motifs rather than one specific kind of NBRE-motif, based on the assumption that the natural promoter generates closer biological screening condition than artificially copied promoter and the false positive chemicals due to the interaction of other unrelated transcription factors can be easily ruled out by the effective secondary screening method.
To explore this new Nurr1 cell based assay system, several combinations of variable parameters, including effector gene promoter, internal control gene promoter, TH promoter size, promoter of internal control gene, transient transfection condition, serum concentration, and DMSO effect were tried. […]

GAL4 DBD-Nurr1 LBD = target: T2, GAL4 DBD-Nurr1 LBD (Homo sapiens, UniProt P43354); assay: Secondary screening: GAL4-DBD construct fused with Nurr1-LBD, luciferase reporter in SK-N-BE(2)C cells; settings: incubation for eighteen hours
T2 construct: expressed in transfected cells; host or cells: SK-N-BE(2)C cells, transient transfection
T2 sequence (P43354 360-595 limits assumed): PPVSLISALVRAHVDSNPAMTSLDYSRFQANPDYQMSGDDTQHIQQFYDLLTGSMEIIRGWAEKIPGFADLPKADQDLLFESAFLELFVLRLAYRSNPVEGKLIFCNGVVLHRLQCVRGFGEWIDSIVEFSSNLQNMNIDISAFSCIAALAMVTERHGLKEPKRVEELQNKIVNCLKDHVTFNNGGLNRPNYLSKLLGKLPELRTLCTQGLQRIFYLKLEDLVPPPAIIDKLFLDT
T2 sequence (P04386 1-147 partner limits assumed): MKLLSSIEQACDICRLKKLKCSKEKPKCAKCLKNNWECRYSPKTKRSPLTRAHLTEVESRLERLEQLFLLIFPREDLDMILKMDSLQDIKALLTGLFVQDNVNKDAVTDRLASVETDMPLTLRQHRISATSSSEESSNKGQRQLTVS
Protocol: FIG. 7 includes a chart showing secondary screening data with primary hit chemicals. Transiently expressed Nurr1 activity in SK-N-BE(2)C cells was measured by luciferase activity after incubation of each compound with GAL4-DBD construct fused with Nurr1-LBD for eighteen hours. […] Also shown is a schematic representation of the GAL4-DBD-Nurr1-LBD fusion construct activating the firefly luciferase reporter gene.
As a secondary screening system, GAL4 DNA binding domain (DBD) constructs were used, which separately fused whole Nurr1, Nurr1-ligand binding domain (LBD), or Nurr1-DNA binding domain to the yeast GAL4 DBD. […] 6-MP, regulating Nurr1 through a region in the amino terminus, was used as a negative control in this experiment.

[1] = system: mouse ES cell-derived neurons (ES cell lines D3 and J1); assay: Dopaminergic neuronal differentiation of ES cells in vitro (5-stage method), TH+/Tuj1+ immunostaining; settings: 2 uM added at day five of the ES-derived neuronal stage for four days
Source text: FIG. 10A is a pair of photos showing embryonic stem (ES) cell-derived neurons subjected to an indirect immunohistochemical assay (TH+/Tuj1+ staining). ES-derived neurons were immunolabeled with anti-β-tubulin III and anti-TH. Superposition of both proteins under a fluorescent microscope is shown in white. DMSO was used as a control.
For in vitro differentiation of ES cells, we used the 5-stage method, which is known in the art (see, e.g., Lee et al., Nat. Biotechnol. 18:675-679, 2000) and is useful for distinguishing each stage of developmental progression of ES cells. The mouse blastocyst-derived ES cell lines D3 and J1 were propagated and maintained according to methods well-known in the art (see, e.g., Deacon et al., Exp. Neurol., 149:28-41, 1998, and Chung et al., Stem Cells, 20:139-145, 2002). The mouse ES cells were generated as embryoid bodies (EBs) on nonadherent bacterial dishes for four days in growth medium consisting of DMEM supplemented with 2 mM L-glutamine, 0.001% β-mercaptoethanol, 1× non-essential amino acids (all from Invitrogen), and 10% FBS (Hyclone). The EBs were then plated onto adhesive tissue culture dish surfaces. After 24 hours in culture, selection of nestin-positive cells was performed in serum-free ITSFn medium. […]

Luciferase activity compared to control with DMSO, preliminary screening (Nurr1; 2.6-TH promoter) | SMILES | Hit identification in repeated primary screening (luciferase activity) (Nurr1) | Hit identification in secondary screening (luciferase activity) (GAL4 DBD-Nurr1 LBD) | Hit identification in secondary screening (luciferase activity) (GAL4 DBD-Nurr1 LBD; listed as Amodiaquine) | Hit identification in secondary screening (luciferase activity) (GAL4 DBD-Nurr1 LBD; listed as amodiaquine) | Number of TH+ cells during in vitro ES cell differentiation, in comparison with the control DMSO [1]
– | O=C(OCC(O)CO)c1ccccc1Nc1ccnc2cc(Cl)ccc12 (stereo not shown) [Glafenine (11D), glafenine] | hit candidates | identified as hit candidate compounds; also recorded: hit candidates | – | – | –
– | CCN(CC)Cc1cc(Nc2ccnc3cc(Cl)ccc23)ccc1O [Amodiaquine (4E), amodiaquine] | hit candidates | – | identified as hit candidate compounds | hit candidates | increased the number of TH+ cells
apparent increase in luciferase activity | CCN(CC)CCCC(C)Nc1ccnc2cc(Cl)ccc12 (stereo not shown) [Chloroquine diphosphate, chloroquine diphosphate] | – | – | – | – | –
